IC50 and ED50 data for 30 molecules are collected here from patent publication US7662832B2, “Pyrrolo[2,3-c]pyridine derivatives and processes for the preparation thereof” (priority 2004, dated 2010).

The target of assay [1] is Proton Pump (H^+/K^+-ATPase) (Sus scrofa, UniProt P19156). Description: Inhibitory effects on proton pump (H^+/K^+-ATPase) activity. The format is biochemical. The following applies: hog gastric vesicles; K^+ stimulated H^+/K^+-ATPase activity; 30 minutes at 37° C.
Assay [2] relates to basal gastric acid secretion. Put plainly: Inhibitory effects on basal gastric acid secretion in pylorus-ligated rats (Shay's rat model). The format is in vivo, Sprague Dawley (SD) rats. To be noted: oral, one hour before pylorus ligation, total acid output 5 hours after ligation. The protocol: Inhibitory effects of the compounds of the present invention on basal gastric acid secretion were performed according to Shay's rat model (Shay, H., et al., 1945, gastroenterology, 5, 43-61). Male Sprague Dawley (SD) rats (200±10 g body weight) were divided into […] (n=5) and fasted for 24 hours with free access to water. Control group was orally administered with 0.5% methylcellulose alone and the other groups were orally administered with test compounds suspended in 0.5% methylcellulose solution at doses of 1, 3 and 10 mg/kg/5 ml one hour before pylorus ligation.
Under ether anesthesia, the abdomens of the rats were incised and then the pylorus was ligated. 5 hours after ligation, the animals were sacrificed, and the gastric contents were collected. The collected contents were centrifuged at 1,000×g for 10 minutes to obtain the gastric juice. Total acid output was measured by 0.01N NaOH volume (ueq/ml) for automatic titration of the gastric juice to pH 7.0 and the ED50s of test compounds were calculated using the Litchfield-Wilcoxon method. % inhibitory activity was calculated from the following equation and the results are shown in Table 2. % inhibitory activity of test compound=(total acid output of control group−total acid output of the group treated with test compounds)/total acid output of control group×100

Counter-ions that a name gives are not always drawn.

Sequence of Proton Pump (H^+/K^+-ATPase) (P19156 2-1034 limits assumed): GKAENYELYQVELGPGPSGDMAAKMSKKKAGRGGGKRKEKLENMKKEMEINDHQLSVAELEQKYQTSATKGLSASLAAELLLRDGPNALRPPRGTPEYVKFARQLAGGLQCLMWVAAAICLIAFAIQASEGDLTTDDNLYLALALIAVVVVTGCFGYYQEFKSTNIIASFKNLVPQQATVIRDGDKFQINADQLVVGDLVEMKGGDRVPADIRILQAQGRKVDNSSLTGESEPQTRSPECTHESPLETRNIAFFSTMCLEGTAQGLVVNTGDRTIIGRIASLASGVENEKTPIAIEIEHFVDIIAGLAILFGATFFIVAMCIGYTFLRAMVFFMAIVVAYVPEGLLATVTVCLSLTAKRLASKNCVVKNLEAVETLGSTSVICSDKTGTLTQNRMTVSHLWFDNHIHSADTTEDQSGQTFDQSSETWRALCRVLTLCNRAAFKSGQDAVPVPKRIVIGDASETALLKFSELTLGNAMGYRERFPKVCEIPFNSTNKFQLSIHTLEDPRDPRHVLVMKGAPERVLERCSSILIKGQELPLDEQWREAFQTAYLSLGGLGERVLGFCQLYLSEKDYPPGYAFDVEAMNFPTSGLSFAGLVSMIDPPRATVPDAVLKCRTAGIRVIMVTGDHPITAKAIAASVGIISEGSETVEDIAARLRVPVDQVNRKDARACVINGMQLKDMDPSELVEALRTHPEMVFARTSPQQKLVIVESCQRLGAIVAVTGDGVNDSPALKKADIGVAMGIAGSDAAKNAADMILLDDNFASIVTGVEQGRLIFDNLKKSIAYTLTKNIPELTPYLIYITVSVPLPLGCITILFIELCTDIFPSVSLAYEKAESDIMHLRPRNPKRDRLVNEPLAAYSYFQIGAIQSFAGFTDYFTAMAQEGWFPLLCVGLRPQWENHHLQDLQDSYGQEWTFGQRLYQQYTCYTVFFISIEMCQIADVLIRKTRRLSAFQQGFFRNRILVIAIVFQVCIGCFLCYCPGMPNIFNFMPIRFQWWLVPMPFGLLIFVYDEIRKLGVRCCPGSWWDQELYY
Sequence of Proton Pump (H^+/K^+-ATPase) (P18434 whole entry partner): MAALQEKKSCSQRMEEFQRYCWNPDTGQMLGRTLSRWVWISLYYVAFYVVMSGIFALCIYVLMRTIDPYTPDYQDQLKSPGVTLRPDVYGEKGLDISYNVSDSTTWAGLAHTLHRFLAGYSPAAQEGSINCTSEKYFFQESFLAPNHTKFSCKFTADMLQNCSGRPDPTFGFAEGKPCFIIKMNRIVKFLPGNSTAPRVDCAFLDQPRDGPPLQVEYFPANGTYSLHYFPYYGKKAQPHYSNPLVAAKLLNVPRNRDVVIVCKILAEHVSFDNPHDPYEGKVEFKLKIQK

What is called IC50 is the point on the concentration scale where inhibition reaches its midpoint. What is called ED50 is the midpoint of the dose-response relation. The low end stands for greater potency, the high end for weaker potency. As for `Cc1c(C)n(Cc2ccccc2)c2c(N3CCc4ccccc4C3)nccc12.Cl` [Example 469, 1-benzyl-7-(1,2,3,4-tetrahydroisoquinolin-2-yl)-2,3-dimethyl-1H-pyrrolo[2,3-c]pyridine hydrochloride], in assay [1], the IC50 was 0.052 µM. Besides, the ED50 in assay [2] was 1.4 mg/kg.
For `C=CCn1c(C)c(C)c2ccnc(N3CCc4ccccc4C3C)c21.Cl` (stereo not shown) [Example 553, 2-(1-allyl-2,3-dimethyl-1H-pyrrolo[2,3-c]pyridin-7-yl)-1-methyl-1,2,3,4-tetrahydroisoquinoline hydrochloride] the same measures were 0.026 µM and 2.1 mg/kg.
The molecule `COc1ccc(Cn2c(C)c(C)c3ccnc(N4CCc5ccccc5C4)c32)cc1.Cl` [Example 482, 1-(4-methoxybenzyl)-7-(1,2,3,4-tetrahydroisoquinolin-2-yl)-2,3-dimethyl-1H-pyrrolo[2,3-c]pyridine hydrochloride] gave an IC50 in assay [1] of 0.36 µM. Besides, the ED50 in assay [2] was determined as 2.4 mg/kg.
For `Cc1c(C)n(Cc2cccc(F)c2)c2c(N3CCc4ccccc4C3C)nccc12.Cl` (stereo not shown) [Example 557, 2-[1-(3-fluorobenzyl)-2,3-dimethyl-1H-pyrrolo[2,3-c]pyridin-7-yl]-1-methyl-1,2,3,4-tetrahydroisoquinoline hydrochloride] the same measures were 0.146 µM and 4.1 mg/kg.
The corresponding values for `Cc1[nH]c2c(N3CCc4ccccc4C3)nccc2c1C.Cl` [Example 468, 7-(1,2,3,4-tetrahydroisoquinolin-2-yl)-2,3-dimethyl-1H-pyrrolo[2,3-c]pyridine hydrochloride] are 0.19 µM and 5.2 mg/kg.
On to `Cc1[nH]c2c(-c3ccc4ccccc4c3)nccc2c1C.Cl` [Example 402, 2,3-dimethyl-7-(naphthalen-2-yl)-1H-pyrrolo[2,3-c]pyridine hydrochloride], for which, in assay [1], half-maximal inhibition (IC50) was put at 0.063 µM. The molecule also registered an ED50 in assay [2] of 11.2 mg/kg.
Turning to `Cc1c(C)n(Cc2cccc(F)c2)c2c(NCc3ccc(F)cc3)nccc12.Cl` [Example 207, 1-(3-fluorobenzyl)-7-(4-fluorobenzylamino)-2,3-dimethyl-1H-pyrrolo[2,3-c]pyridine hydrochloride], it took a dose of 8.3 mg/kg to reach the 50% effect level in assay [2] (ED50).
For `Cc1c(C)n(C)c2c(N3CCc4ccccc4C3)nccc12.Cl` [Example 470, 7-(1,2,3,4-tetrahydroisoquinolin-2-yl)-1,2,3-trimethyl-1H-pyrrolo[2,3-c]pyridine hydrochloride], the IC50 in assay [1] stood at 0.32 µM. This molecule also returned a median effective dose (ED50) in assay [2] of 4.4 mg/kg.
The corresponding values for `C=COCCn1c(C)c(C)c2ccnc(N3CCc4ccccc4C3)c21.Cl` [Example 511, 1-(2-vinyloxyethyl)-7-(1,2,3,4-tetrahydroisoquinolin-2-yl)-2,3-dimethyl-1H-pyrrolo[2,3-c]pyridine hydrochloride] are 0.42 µM and 2.1 mg/kg.
For `Cc1c(C)n(CC(C)C)c2c(NCc3ccc(F)cc3)nccc12.Cl` [Example 208, 7-(4-fluorobenzylamino)-1-isobutyl-2,3-dimethyl-1H-pyrrolo[2,3-c]pyridine hydrochloride] the same measures were 0.094 µM and 1.3 mg/kg.
The corresponding values for `Cc1ccccc1CNc1nccc2c(C)c(C)n(CC(C)C)c12.Cl` [Example 210, 1-isobutyl-2,3-dimethyl-7-(2-methylbenzylamino)-1H-pyrrolo[2,3-c]pyridine hydrochloride] are 0.054 µM and 1.9 mg/kg.
As for `C=CCn1c(C)c(C)c2ccnc(N3CCc4ccccc4C3)c21.Cl` [Example 484, 1-allyl-7-(1,2,3,4-tetrahydroisoquinolin-2-yl)-2,3-dimethyl-1H-pyrrolo[2,3-c]pyridine hydrochloride], it took 0.0037 µM to reach half-maximal inhibition in assay [1] (IC50). The same molecule yielded a median effective dose (ED50) in assay [2] of 1.4 mg/kg.
Regarding `Cc1ccc(Cn2c(C)c(C)c3ccnc(N4CCc5ccccc5C4)c32)cc1.Cl` [Example 477, 1-(4-methylbenzyl)-7-(1,2,3,4-tetrahydroisoquinolin-2-yl)-2,3-dimethyl-1H-pyrrolo[2,3-c]pyridine hydrochloride], the IC50 in assay [1] amounted to 0.3 µM. Also, the ED50 in assay [2] worked out at 2 mg/kg.
The corresponding values for `C=CCn1c(C)c(C)c2ccnc(N3CCc4cc(F)ccc4C3C)c21.Cl` (stereo not shown) [Example 563, 2-(1-allyl-2,3-dimethyl-1H-pyrrolo[2,3-c]pyridin-7-yl)-6-fluoro-1-methyl-1,2,3,4-tetrahydroisoquinoline hydrochloride] are 0.049 µM and 3.5 mg/kg.
As for `Cc1c(C)n(Cc2ccc(F)cc2)c2c(NCc3ccc(Cl)cc3)nccc12.Cl` [Example 218, 7-(4-chlorobenzylamino)-1-(4-fluorobenzyl)-2,3-dimethyl-1H-pyrrolo[2,3-c]pyridine hydrochloride], the ED50 in assay [2] was 4.1 mg/kg.
On the same count and under the same terms, to `Cc1c(C)n(Cc2ccc(C(C)(C)C)cc2)c2c(N3CCc4ccccc4C3)nccc12.Cl` [Example 507, 1-(4-tert-butylbenzyl)-7-(1,2,3,4-tetrahydroisoquinolin-2-yl)-2,3-dimethyl-1H-pyrrolo[2,3-c]pyridine hydrochloride] belongs 3.1 mg/kg.
On to `Cc1ccc(-c2nccc3c(C)c(C)n(Cc4ccc(Cl)c(Cl)c4)c23)cc1` [Example 296, 1-(3,4-dichlorobenzyl)-2,3-dimethyl-7-(p-tolyl)-1H-pyrrolo[2,3-c]pyridine hydrochloride], for which the concentration for half-maximal inhibition (IC50) in assay [1] was 5.08 µM.
Still for that read-out and setting: in the case of `Cc1c(C)n(CC2CC2)c2c(CN(C)c3ccc(F)cc3)nccc12` [Example 112, N-(1-cyclopropylmethyl-2,3-dimethyl-1H-pyrrolo[2,3-c]pyridin-7-ylmethyl)-N-(4-fluorophenyl)-methylamine hydrochloride] it was 0.151 µM.
Regarding `C=CCn1c(C)c(C)c2ccnc(COc3ccc(F)cc3)c21` [Example 2, 1-allyl-7-(4-fluorophenoxymethyl)-2,3-dimethyl-1H-pyrrolo[2,3-c]pyridine hydrochloride], 0.41 µM corresponded to half-maximal inhibition in assay [1] (IC50).
The same measure, in the same setting: in the case of `C=CCn1c(C)c(C)c2ccnc(-c3ccc(SC)cc3)c21` [Example 263, 1-allyl-2,3-dimethyl-7-(4-methylsulfanylphenyl)-1H-pyrrolo[2,3-c]pyridine hydrochloride] it was 0.075 µM.
`Cc1c(CO)c2ccnc(N3CCc4ccccc4C3)c2n1Cc1cccc(F)c1` [Example 617, [7-(3,4-dihydro-1H-isoquinolin-2-yl)-1-(3-fluorobenzyl)-2-methyl-1H-pyrrolo[2,3-c]pyridin-3-yl]-methanol hydrochloride]: the IC50 in assay [1] was 0.065 µM.
Same read-out and setting: to `C=CCn1c(C)c(C)c2cc(C(=O)NCc3ccc4c(c3)OCO4)nc(N3CCc4ccccc4C3)c21` [Example 760, 1-allyl-7-(3,4-dihydro-1H-isoquinolin-2-yl)-2,3-dimethyl-N-(benzo[1,3]dioxol-5-ylmethyl)-1H-pyrrolo[2,3-c]pyridin-5-carboxamide hydrochloride] belongs 0.373 µM.
Same read-out and setting: to `Cc1c(C)n(Cc2ccccc2)c2c(N3CCc4ccccc4C3)nc(C(=O)O)cc12` [Example 733, 1-benzyl-7-(3,4-dihydro-1H-isoquinolin-2-yl)-2,3-dimethyl-1H-pyrrolo[2,3-c]pyridin-5-carboxylic acid] belongs 0.117 µM; to `Cc1c(C)n(Cc2ccc(Cl)s2)c2c(N3CCc4ccccc4C3)nccc12` [Example 514, 1-(5-chlorothiophene-2-ylmethyl)-7-(1,2,3,4-tetrahydroisoquinolin-2-yl)-2,3-dimethyl-1H-pyrrolo[2,3-c]pyridine hydrochloride], 0.2 µM.
Same read-out and setting: to `Cc1cccc(Cn2c(C)c(C)c3ccnc(CN(C)c4ccc(F)cc4)c32)c1` [Example 126, N-[2,3-dimethyl-1-(3-methylbenzyl)-1H-pyrrolo[2,3-c]pyridin-7-ylmethyl]-N-(4-fluorophenyl)-methylamine hydrochloride] belongs 0.397 µM; to `Cc1c(C)n(CC(C)C)c2c(NCc3ccc(Cl)cc3)nccc12` [Example 209, 7-(4-chlorobenzylamino)-1-isobutyl-2,3-dimethyl-1H-pyrrolo[2,3-c]pyridine hydrochloride], 0.066 µM; to `Cc1c(C)n(CC2CC2)c2c(NCc3ccccc3)nccc12` [Example 185, 7-benzylamino-1-cyclopropylmethyl-2,3-dimethyl-1H-pyrrolo[2,3-c]pyridine hydrochloride], 0.32 µM.
In assay [1], `COCCn1c(C)c(C)c2ccnc(NCc3ccccc3C)c21` [Example 213, 1-(2-methoxyethyl)-2,3-dimethyl-7-(2-methylbenzylamino)-1H-pyrrolo[2,3-c]pyridine hydrochloride] displayed an IC50 of 0.31 µM.
Still for that read-out and setting: in the case of `C=CCn1c(C)c(C)c2cc(C(=O)N3CCNCC3)nc(N3CCc4ccccc4C3)c21` [Example 811, [1-allyl-7-(3,4-dihydro-1H-isoquinolin-2-yl)-2,3-dimethyl-1H-pyrrolo[2,3-c]pyridin-5-yl]-(piperazin-1-yl)-methanone hydrochloride] it was 0.003 µM; in that of `Cc1[nH]c2c(N3CCc4cc(F)ccc4C3C)nccc2c1C` (stereo not shown) [Example 561, 6-fluoro-2-(2,3-dimethyl-1H-pyrrolo[2,3-c]pyridin-7-yl)-1-methyl-1,2,3,4-tetrahydroisoquinoline hydrochloride], 0.065 µM.
